# Earlier results as cited in paper PMC6381106 (Scientific Reports, 2019).
# System: TLR4
# Settings: literature; ref [62]–[65]; cited from earlier work
# Description: Multiple anti-inflammatory immunomodulatory therapies have been developed to ameliorate proinflammation following bacterial infection. […] Therefore, novel therapeutic approaches that decrease inflammatory responses should be developed, and researchers should expand the focus beyond agents that only treat the initial infe ...
smiles,measurement,value
CCOC(=O)C1=CCCC[C@H]1S(=O)(=O)Nc1ccc(F)cc1Cl [TAK-242],outcome in clinical trials (TLR4 inhibitor; in words),unsuccessful in clinical trials
